# Experiments:
# α4β1/VCAM-1 = molecular target: T1, α4β1/VCAM-1 (Homo sapiens, UniProt P05556+P13612); assay: Static cell adhesion assay, Jurkat cells on VCAM-1 (α4β1/VCAM-1); type: cell-based; details: ratio compound activity/control THI0019 (average 33 μM) run on the same plate
# T1 construct: The Jurkat (VCAM-1 assays) and HSB (ICAM-1 assays) cell lines were obtained from American Type Culture Collection; endogenous in cells; host or cells: Jurkat cells (ATCC)
# Protocol: (§1) For in vitro cell adhesion assays, compounds were dissolved in DMSO to make a series of stock solutions such that a 1:100 dilution in assay buffer would yield the desired final working concentrations in 1% DMSO (vehicle). Human VCAM-1 and ICAM-1 were purchased from R&D Systems (Minneapolis, MN). The Jurkat (VCAM-1 assays) and HSB (ICAM-1 assays) cell lines were obtained from American Type Culture Collection (Manassas, VA) and were maintained in recommended culture media.
# (§2) Assays were performed as previously described in 1. Vanderslice, P., Woodside, D. G., Caivano, A. R., Decker, E. R., Munsch, C. L., Sherwood, S. J., Lejeune, W. S., Miyamoto, Y. J., McIntyre, B. W., Tilton, R. G., and Dixon, R. A. (2010) Potent in vivo suppression of inflammation by selectively targeting the high affinity conformation of integrin alpha4beta1. Biochem Biophys Res Commun 400, 619-624; and 2. Vanderslice, P., Biediger, R. J., Woodside, D. G., Brown, W. S., Khounlo, S., Warier, N. D., Gundlach, C. W. t., Caivano, A. R., Bornmann, W. G., Maxwell, D. S., McIntyre, B. W., Willerson, J. T., and Dixon, R. A. (2013) Small molecule agonist of very late antigen-4 (VLA-4) integrin induces progenitor cell adhesion. J Biol Chem 288, 19414-19428. VCAM-1 or ICAM-1 ligand in 50 μL of 50 mM Tris-HCl (pH 7.4), 150 mM NaCl, (TBS) was added to wells of a 96-well plate and allowed to coat overnight at 4° C. To maximize the window to evaluate agonist activity, a sub-optimal coating concentration of ligand was used, typically between 0.5 and 5 μg/mL in 50 μL TBS for VCAM-1 and ICAM-1 respectively. This ligand concentration corresponded approximately to that which would yield≤ 5% adhesion as determined by dose-response curves. Briefly, 2×10^6 cells were labeled for 30 minutes with calcein-AM (Molecular Probes), washed, resuspended in binding buffer, and added to triplicate wells of ligand-coated plates (2×10^5 cells/well) that had been blocked with 2% BSA. After a 30-minute incubation at 37° C., the plates were washed 3 times with binding buffer, the adherent cells were lysed, and fluorescence was measured on a Tecan Safire^2 plate reader. The binding buffer was PBS with 1 mM MgCl2, 50% FBS for α4β1/VCAM-1 assays and PBS with 2 mM MgCl2, 5 mM EGTA, 50% FBS for αLβ2/ICAM-1 assays. EC50 is defined as the concentration of compound required to achieve 50% of the maximal response.
# LFA-1 = molecular target: T2, LFA-1 (Homo sapiens, UniProt P05107+P20701); assay: Static cell adhesion assay, HSB cells on ICAM-1 (αLβ2/ICAM-1; LFA-1); type: cell-based; details: Dose 3 μM, compound and THI0349 at the same concentration; ratio >1 = more potent agonist
# T2 construct: The Jurkat (VCAM-1 assays) and HSB (ICAM-1 assays) cell lines were obtained from American Type Culture Collection; endogenous in cells; host or cells: HSB cells (ATCC)
# T2 sequence (P20701 26-1170): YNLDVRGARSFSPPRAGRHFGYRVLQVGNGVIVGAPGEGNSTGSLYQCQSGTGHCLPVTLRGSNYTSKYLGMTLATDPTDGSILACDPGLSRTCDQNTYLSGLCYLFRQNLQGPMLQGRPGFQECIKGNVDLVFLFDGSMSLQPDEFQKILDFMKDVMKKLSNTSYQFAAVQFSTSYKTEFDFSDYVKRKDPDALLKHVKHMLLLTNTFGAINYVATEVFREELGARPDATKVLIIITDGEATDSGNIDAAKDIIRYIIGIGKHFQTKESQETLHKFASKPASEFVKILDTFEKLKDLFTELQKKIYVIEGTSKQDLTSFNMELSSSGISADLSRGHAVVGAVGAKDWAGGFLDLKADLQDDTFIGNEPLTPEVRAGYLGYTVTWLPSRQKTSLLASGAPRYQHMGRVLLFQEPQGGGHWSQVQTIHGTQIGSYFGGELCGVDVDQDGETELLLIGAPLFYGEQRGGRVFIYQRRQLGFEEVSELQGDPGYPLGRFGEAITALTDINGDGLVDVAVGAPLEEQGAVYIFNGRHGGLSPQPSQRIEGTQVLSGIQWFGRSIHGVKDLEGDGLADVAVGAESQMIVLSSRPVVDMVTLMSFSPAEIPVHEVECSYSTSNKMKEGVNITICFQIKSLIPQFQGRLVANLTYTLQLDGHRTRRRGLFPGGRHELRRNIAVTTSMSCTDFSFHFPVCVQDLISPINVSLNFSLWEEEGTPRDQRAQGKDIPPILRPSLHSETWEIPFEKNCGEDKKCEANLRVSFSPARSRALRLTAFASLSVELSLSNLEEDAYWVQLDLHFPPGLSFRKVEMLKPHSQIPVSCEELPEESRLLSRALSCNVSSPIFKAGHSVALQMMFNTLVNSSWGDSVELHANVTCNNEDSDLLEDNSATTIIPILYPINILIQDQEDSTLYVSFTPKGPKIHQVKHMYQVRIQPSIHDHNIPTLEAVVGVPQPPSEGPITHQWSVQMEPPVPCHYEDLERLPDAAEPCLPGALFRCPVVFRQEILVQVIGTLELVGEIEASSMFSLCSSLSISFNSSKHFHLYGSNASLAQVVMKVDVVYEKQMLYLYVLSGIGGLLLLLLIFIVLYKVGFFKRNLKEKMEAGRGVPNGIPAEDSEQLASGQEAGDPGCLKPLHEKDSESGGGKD
# T2 sequence (P05107 23-769): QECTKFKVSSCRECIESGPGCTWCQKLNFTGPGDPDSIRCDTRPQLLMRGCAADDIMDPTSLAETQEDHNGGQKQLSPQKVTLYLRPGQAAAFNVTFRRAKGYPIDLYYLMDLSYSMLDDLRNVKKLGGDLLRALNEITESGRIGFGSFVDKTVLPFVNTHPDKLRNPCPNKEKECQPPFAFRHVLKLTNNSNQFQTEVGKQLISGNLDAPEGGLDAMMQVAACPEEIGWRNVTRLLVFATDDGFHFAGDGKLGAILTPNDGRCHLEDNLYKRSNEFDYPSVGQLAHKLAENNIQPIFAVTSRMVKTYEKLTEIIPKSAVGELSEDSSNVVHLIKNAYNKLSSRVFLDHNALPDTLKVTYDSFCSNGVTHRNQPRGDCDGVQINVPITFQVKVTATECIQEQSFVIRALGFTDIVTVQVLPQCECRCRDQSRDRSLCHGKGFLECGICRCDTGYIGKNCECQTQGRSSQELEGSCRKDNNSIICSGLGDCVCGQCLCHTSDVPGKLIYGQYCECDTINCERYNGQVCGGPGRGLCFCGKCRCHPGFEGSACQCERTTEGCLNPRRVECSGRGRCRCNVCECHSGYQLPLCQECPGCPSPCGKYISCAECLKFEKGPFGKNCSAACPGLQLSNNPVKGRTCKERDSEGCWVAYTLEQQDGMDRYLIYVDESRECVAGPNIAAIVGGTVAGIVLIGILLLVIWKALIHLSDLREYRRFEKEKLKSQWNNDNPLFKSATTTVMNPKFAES
# Protocol: as §1, §2
# THI0019 and THI0349 (average 11 μM) reported values here were obtained under the assay conditions reported herein and ran higher in the presence of serum than those values under different assay conditions. […] Relative to THI0019 (average 33 μM) as a control against CS1, the ratio of (compound activity/control) is as follows: Group I< or =1. Group II at least a ratio of >1 up to 2× that of THI0019 ran on the same plate; Group III is >2× of THI0019 but less than 5×; and Group IV>5× of THI0019 (with an upper limit of approximately 200 mM). In relation to LAD (Leukocyte Adhesion Deficiency), LFA-1 ratios are determined by dividing the relative fluorescence units (RFU) of each compound over that of the reference standard of THI0349, (RFU Compound/RFU of THI0349). Against LFA-1, the signal for THI0349 at 3 μM was compared to the claimed compounds at the same concentration.
# T1 sequence (P13612 34-1032): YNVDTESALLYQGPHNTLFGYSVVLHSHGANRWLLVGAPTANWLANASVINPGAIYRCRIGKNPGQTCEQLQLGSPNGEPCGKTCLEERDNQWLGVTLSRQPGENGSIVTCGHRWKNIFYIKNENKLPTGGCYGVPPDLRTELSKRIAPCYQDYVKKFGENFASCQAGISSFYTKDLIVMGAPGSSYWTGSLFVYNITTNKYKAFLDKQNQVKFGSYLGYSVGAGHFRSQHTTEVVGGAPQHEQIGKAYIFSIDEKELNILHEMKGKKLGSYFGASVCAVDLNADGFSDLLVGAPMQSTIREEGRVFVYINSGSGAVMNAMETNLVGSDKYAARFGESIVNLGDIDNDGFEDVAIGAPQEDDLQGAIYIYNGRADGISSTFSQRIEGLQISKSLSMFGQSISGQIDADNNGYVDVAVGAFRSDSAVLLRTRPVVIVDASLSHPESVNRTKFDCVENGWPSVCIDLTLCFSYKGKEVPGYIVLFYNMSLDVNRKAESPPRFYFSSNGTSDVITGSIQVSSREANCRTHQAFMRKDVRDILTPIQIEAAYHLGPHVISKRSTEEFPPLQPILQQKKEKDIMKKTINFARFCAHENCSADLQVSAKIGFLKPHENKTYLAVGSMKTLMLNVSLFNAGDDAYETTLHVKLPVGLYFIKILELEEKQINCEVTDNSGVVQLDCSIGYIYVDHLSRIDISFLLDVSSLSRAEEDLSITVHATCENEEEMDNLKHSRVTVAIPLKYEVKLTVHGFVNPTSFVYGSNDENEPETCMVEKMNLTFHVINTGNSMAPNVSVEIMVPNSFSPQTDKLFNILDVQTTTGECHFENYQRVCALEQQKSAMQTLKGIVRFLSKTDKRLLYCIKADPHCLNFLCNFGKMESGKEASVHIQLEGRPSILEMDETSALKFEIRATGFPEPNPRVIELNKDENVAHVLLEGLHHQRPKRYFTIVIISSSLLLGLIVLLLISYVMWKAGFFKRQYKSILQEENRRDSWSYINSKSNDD
# T1 sequence (P05556 21-798): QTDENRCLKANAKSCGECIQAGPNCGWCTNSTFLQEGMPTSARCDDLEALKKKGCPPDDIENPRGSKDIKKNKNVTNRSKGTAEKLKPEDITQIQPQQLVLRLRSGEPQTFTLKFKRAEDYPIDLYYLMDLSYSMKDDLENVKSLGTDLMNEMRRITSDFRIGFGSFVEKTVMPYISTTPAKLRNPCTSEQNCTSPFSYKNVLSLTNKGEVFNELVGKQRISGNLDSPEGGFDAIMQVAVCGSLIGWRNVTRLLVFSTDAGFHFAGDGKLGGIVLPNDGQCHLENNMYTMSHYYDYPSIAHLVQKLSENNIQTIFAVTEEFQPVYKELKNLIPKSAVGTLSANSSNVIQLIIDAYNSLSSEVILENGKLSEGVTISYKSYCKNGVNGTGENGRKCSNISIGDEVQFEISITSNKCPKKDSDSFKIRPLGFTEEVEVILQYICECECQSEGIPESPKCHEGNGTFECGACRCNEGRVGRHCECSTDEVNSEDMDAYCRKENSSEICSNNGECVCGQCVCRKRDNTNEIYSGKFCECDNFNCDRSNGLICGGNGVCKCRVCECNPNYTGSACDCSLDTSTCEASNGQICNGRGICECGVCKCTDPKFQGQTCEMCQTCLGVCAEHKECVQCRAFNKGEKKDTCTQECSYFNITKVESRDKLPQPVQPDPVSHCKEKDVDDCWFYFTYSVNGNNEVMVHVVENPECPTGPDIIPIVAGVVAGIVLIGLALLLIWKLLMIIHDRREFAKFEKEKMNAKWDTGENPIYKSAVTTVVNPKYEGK
SMILES,Average Ratio Compound to THI0019 (Activity against CS1) (α4β1/VCAM-1),LAD Raw Fluorescence Units against LFA-1; Ratio of raw counts Compound/THI0349 (LFA-1)
"COc1ccc(CN(Cc2ccc(OC)cc2)C(=O)CN2CCN(C(=O)Cc3cccc(OC)c3)CC2=O)cc1 [N,N-bis(4-methoxybenzyl)-2-(4-(2-(3-methoxyphenyl)acetyl)-2-oxopiperazin-1-yl)acetamide]",Group III (Group III is >2× of THI0019 but less than 5×),0.5 fold response
"COc1ccc(CN(Cc2ccc(OC)cc2)C(=O)CN2CCN(Cc3cccc(OC)c3)CC2=O)cc1 [N,N-bis(4-methoxybenzyl)-2-(4-(3-methoxybenzyl)-2-oxopiperazin-1-yl)acetamide]",Group IV (Group IV>5× of THI0019 (with an upper limit of approximately 200 mM)),1.1 fold increased response
COc1ccc(CN(Cc2ccc(N(C)C)cc2)C(=O)CN2CCN(C(=O)c3cccc(OC)c3)CC2=O)cc1 [N-(4-(dimethylamino)benzyl)-2-(4-(3-methoxybenzoyl)-2-oxopiperazin-1-yl)-N-(4-methoxybenzyl)acetamide],Group IV (Group IV>5× of THI0019 (with an upper limit of approximately 200 mM)),1.2 fold increased response
COc1ccc(CN(Cc2ccc(N(C)C)cc2)C(=O)CN2CCN(C(=O)OCc3ccccc3)CC2)cc1 [benzyl 4-(2-((4-(dimethylamino)benzyl)(4-methoxybenzyl)amino)-2-oxoethyl)piperazine-1-carboxylate],Group III (Group III is >2× of THI0019 but less than 5×),1.2 fold increased response
COc1ccc(CN(Cc2ccc(O)cc2)C(=O)CN2CCN(C(=O)OCc3ccccc3)CC2)cc1 [benzyl 4-(2-((4-hydroxybenzyl)(4-methoxybenzyl)amino)-2-oxoethyl)piperazine-1-carboxylate],Group II (Group II at least a ratio of >1 up to 2× that of THI0019 ran on the same plate),1.3 fold increased response
COc1cccc(CN(Cc2cccc(OC)c2)C(=O)CN2CCN(C(=O)OCc3ccccc3)CC2)c1 [benzyl 4-(2-(bis(3-methoxybenzyl)amino)-2-oxoethyl)piperazine-1-carboxylate],Group I (Group I< or =1),1.42 fold increased response
O=C(CN1CCN(C(=O)OCc2ccccc2)CC1)N(Cc1ccc(O)cc1)Cc1ccc(O)cc1 [benzyl 4-(2-(bis(4-hydroxybenzyl)amino)-2-oxoethyl)piperazine-1-carboxylate],Group I (Group I< or =1),0.3 fold response
COc1ccc(CN(Cc2ccc(OC)cc2)C(=O)CN2CCN(C(=O)OCc3ccccc3)CC2)cc1 [benzyl 4-(2-(bis(4-methoxybenzyl)amino)-2-oxoethyl)piperazine-1-carboxylate],Group II (Group II at least a ratio of >1 up to 2× that of THI0019 ran on the same plate),3.3 fold increased response
COc1ccc(CN(Cc2ccc(OC)cc2)C(=O)CCCN2CCN(C(=O)OCc3ccccc3)CC2)cc1 [benzyl 4-(4-(bis(4-methoxybenzyl)amino)-4-oxobutyl)piperazine-1-carboxylate],Group I (Group I< or =1),3 fold increased response
COc1cccc(CN(Cc2cccc(OC)c2)C(=O)CCCCN2CCN(C(=O)OCc3ccccc3)CC2)c1 [benzyl 4-(5-(bis(3-methoxybenzyl)amino)-5-oxopentyl)piperazine-1-carboxylate],Group II (Group II at least a ratio of >1 up to 2× that of THI0019 ran on the same plate),3.9 fold increased response
COc1ccc(CN(Cc2ccc(OC)cc2)C(=O)CCCCN2CCN(C(=O)OCc3ccccc3)CC2)cc1 [benzyl 4-(5-(bis(4-methoxybenzyl)amino)-5-oxopentyl)piperazine-1-carboxylate],Group II (Group II at least a ratio of >1 up to 2× that of THI0019 ran on the same plate),4.3 fold increased response
O=C(CCCCN1CCN(C(=O)OCc2ccccc2)CC1)N(Cc1cccs1)Cc1cccs1 [benzyl 4-(5-(bis(thiophen-2-ylmethyl)amino)-5-oxopentyl)piperazine-1-carboxylate],Group I (Group I< or =1),0.9 fold response
"COc1cccc(CN(Cc2cccc(OC)c2)C(=O)OCCN2CCN(CCOC(=O)N(Cc3cccc(OC)c3)Cc3cccc(OC)c3)CC2)c1 [piperazine-1,4-diylbis(ethane-2,1-diyl) bis(bis(3-methoxybenzyl)carbamate)]",Group I (Group I< or =1),4.7 fold increased response

# From patent US20250099423A1, “PIPERAZINE-BASED AGONISTS OF LFA-1 AND VLA-4” (Texas Heart Institute, priority 2021, published 2025)
